Results on 3 compounds are retold here after ChEMBL document CHEMBL5365398, “Structure-activity relationship study of central pyridine-derived TYK2 JH2 inhibitors: Optimization of the PK profile through C4' and C6 variations” (Bioorg Med Chem Lett, 2023).

By amount remaining is commonly meant the share of the starting amount still present when the sample was taken. The low end stands for more turnover, the high end for less turnover. The AUC(0-t) is the area under the concentration-time curve up to a stated or last time point. Lower therefore signals less exposure. By half-life is commonly meant the time in which the quantity being followed falls by half. The bioavailability is the share of a dose that reaches the circulation, judged against a reference dose that is usually intravenous. Read a low bioavailability as poor availability. Usually Cmax stands for the highest concentration seen after dosing. A word on the Papp A→B: it is how fast a substance crosses the layer from the apical side.

Series [1] in a line: in vitro. The conditions noted are these: human, liver microsomes. On the technique in general: Microsomes from liver hold many membrane-bound enzymes, among them those of drug oxidation.
A short description of series [2]: in vitro. The conditions noted are these: rat, liver microsomes.
Series [3] in a line: in vitro. The conditions noted are these: mouse, liver microsomes.
A short description of series [4]: in vivo. The conditions noted are these: mouse, po, 10 mg/kg.
Series [5] can be described thus: in vitro. The conditions noted are these: mouse, liver microsomes. This is another data set of the same source.
The nature of series [6]: in vitro. The note with it: rat, liver microsomes. The source holds these as a separate data set.
Series [7] can be described thus: in vivo. The conditions noted are these: mouse, po, 10 mg/kg. This is another data set of the same source.
Series [8] can be described thus: in vivo. The note with it: mouse, po, 10 mg/kg. The source holds these as a separate data set.
Series [9] is described as follows: in vitro. The conditions noted are these: human, Caco-2.
A short description of series [10]: in vitro. The conditions noted are these: human, liver microsomes. The source holds these as a separate data set.

On to `[2H]C([2H])([2H])NC(=O)c1nnc(Nc2ccc(C(C)(C)O)cn2)cc1Nc1nccc(-c2ncc(F)cn2)c1OC`, for which the fraction remaining at 10 min, 0.5 µM stood at 100% in [1], 100% in series [2] and 83% in series [3]. In addition, the AUC(0-t) in series [4] turned out to be 34.2 µM·h. The half-life in series [5], in series [6] and in [10] was greater than 2 h throughout. Also, in [7], the bioavailability stood at 94%. In addition, in series [8], the peak concentration (Cmax) stood at 15.2 µM. This compound also registered an apparent permeability from apical to basolateral (Papp A→B) in [9] of 9.7 ×10⁻⁶ cm/s.

Consider `[2H]C([2H])([2H])NC(=O)c1nnc(Nc2cccc(OC)n2)cc1Nc1nccc(-c2ncn(C)n2)c1OC`, for which the amount remaining at 10 min, 0.5 µM in series [1] was 88%; in [2], 71%; in [3] it was 65%.

For `[2H]C([2H])([2H])NC(=O)c1nnc(NC(=O)C2CC2)cc1Nc1nccc(-c2ncc(F)cn2)c1OC`, the figures for the amount remaining at 10 min, 0.5 µM in [1], in series [2] and in series [3] were 89%, 100% and 100%, respectively. In [9], this compound displayed an apparent permeability from apical to basolateral (Papp A→B) of 34.5 ×10⁻⁶ cm/s.
